Measurements taken from patent publication US9504674B2, “TrkB agonists and methods of use” (EMORY UNIVERSITY, priority 2010, dated 2016).
Several values for one entry are separate records, joined by “and”; a condition that tells them apart may be missing. Identical values can stand only once. Entries after “also recorded” stand apart in the source; their conditions may differ.

Assays:
[1] = target: T1, TrkB (Mus musculus, UniProt P15209); experiment: TrkB activation in mouse brain after single oral administration (immunoblotting); assay type: in vivo; conditions: 1 mg/kg oral, C57BL/6J mice
T1 construct: from tissue; host or cells: brain of wild-type C57BL/6J mice
T1 sequence (P15209 32-821): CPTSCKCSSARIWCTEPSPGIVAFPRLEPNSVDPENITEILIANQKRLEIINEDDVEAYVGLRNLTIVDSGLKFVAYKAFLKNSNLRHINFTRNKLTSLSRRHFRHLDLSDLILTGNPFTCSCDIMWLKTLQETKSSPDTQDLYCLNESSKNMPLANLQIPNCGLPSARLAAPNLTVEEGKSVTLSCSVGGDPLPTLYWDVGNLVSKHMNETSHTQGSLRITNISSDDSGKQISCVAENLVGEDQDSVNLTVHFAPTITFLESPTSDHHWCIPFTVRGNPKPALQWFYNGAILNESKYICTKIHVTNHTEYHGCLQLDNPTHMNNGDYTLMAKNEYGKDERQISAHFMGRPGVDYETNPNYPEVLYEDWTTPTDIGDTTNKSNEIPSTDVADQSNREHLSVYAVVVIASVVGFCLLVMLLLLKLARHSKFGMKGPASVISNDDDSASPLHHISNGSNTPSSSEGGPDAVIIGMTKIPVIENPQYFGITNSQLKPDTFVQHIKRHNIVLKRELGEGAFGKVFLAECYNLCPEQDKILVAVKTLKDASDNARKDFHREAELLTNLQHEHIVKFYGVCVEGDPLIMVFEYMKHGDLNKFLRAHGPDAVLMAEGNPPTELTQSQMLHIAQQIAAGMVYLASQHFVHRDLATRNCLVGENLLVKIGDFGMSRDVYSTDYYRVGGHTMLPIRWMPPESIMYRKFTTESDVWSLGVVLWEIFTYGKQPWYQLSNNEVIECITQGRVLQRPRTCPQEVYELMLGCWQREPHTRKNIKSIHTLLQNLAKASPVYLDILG
Experimental: Rat primary neurons were treated with 500 nM. 4′-DMA-7,8-DHF from various time points. The neuronal lysates were analyzed with various antibodies. 4′-DMA-7,8-DHF rapidly activated TrkB and its downstream signaling cascades (left panels). […] One mg/kg of 4′-DMA-7,8-DHF and 7,8-DHF were orally administrated into C57 BL/6J mice and TrkB phosphorylation and its downstream signaling cascades including Akt and MAPK in mouse brain were analyzed by immunoblotting at various time points. TrkB activation by 4′-DMA-7,8-DHF peaked at 4 h, whereas the maximal TrkB activation by 7,8-DHF in mouse brain occurred at 1-2 h (middle panels).
1 mg/kg of various compounds were orally administrated into C57 BL/6J mice and TrkB phosphorylation and its downstream signaling cascades including Akt and MAPK in mouse brain were analyzed by immunoblotting at 2 h.
Time course assay with compound i and m in mouse brain. 1 mg/kg of compound i and m were orally administrated into C57 BL/6J mice and TrkB phosphorylation and its downstream signaling cascades including Akt and MAPK in mouse brain were analyzed by immunoblotting at various time points.
To compare the TrkB activation by these synthetic compounds, primary cortical cultures were prepared. Cortical neurons were treated with 500 nM of various compounds for 20 min and cell lysates were collected. […] Replacing the H-bond acceptor O atom with hydrogen bond donor NH abolishes its stimulatory effect. […] On the other hand, 7,8-DHF provoked TrkB activation with the minimal concentration of 100 nM (FIG. 2B, right panels). To further study 4′-DMA-7,8-DHF's kinetics on TrkB activation, primary neurons were treated for various time points. 4′-DMA-7,8-DHF swiftly activated TrkB as soon as 5 minutes following treatment. […] To compare the stimulatory effect on TrkB receptor in mouse brains, 1 mg/kg of the synthesized derivatives were injected into C57BL/6J mice. TrkB activation was monitored at different time points.
The compounds were orally injected (1 mg/kg) into C57BL/6J mice. The TrkB and its downstream signaling cascades activation at 2 h were examined after drug administration with mouse brain tissues. […] The downstream p-Akt and p-MAPK tightly coupled to p-TrkB signals.

[2] = target: T2, TrkA (Mus musculus, UniProt Q3UFB7); experiment: TrkA activation in brain of chronically treated mice (immunoblotting p-TrkA 794); assay type: in vivo; conditions: 5 mg/kg oral 21 days, brain lysates
T2 construct: from tissue; host or cells: brain of chronically treated C57BL/6J mice
T2 sequence (Q3UFB7 34-799): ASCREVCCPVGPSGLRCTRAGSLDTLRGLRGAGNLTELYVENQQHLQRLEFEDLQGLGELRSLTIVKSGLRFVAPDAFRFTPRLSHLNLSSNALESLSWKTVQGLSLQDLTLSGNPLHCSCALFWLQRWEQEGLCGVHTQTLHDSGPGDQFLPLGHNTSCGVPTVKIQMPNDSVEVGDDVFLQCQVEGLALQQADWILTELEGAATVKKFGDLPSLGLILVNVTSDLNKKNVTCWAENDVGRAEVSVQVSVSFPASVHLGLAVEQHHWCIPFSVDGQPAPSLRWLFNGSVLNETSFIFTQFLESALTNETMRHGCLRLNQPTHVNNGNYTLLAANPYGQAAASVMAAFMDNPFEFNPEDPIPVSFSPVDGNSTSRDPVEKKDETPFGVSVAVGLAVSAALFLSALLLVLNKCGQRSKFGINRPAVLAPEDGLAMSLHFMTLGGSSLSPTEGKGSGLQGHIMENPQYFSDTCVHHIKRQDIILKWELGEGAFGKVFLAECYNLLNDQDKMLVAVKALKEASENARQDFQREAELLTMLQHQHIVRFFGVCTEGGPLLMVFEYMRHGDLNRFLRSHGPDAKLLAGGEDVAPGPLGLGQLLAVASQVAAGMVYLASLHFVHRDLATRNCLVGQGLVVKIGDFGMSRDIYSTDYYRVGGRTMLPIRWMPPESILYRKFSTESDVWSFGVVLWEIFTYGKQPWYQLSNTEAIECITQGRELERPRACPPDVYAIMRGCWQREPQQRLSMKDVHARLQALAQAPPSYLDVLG
Experimental: (§1) The brain lysates from above chronically treated mice were analyzed by immunoblotting with anti-p-TrkA 794 and p-TrkB 817.
(§2) Accumulating evidence supports that BDNF plays a role in mediating therapeutic effects of antidepressants. Infusion of exogenous BDNF into hippocampus or brain stem has anti-depressant-like behavioral effect. A forced swim test is broadly used for screening of potential antidepressant drugs and is widely used to measure antidepressant activity. To explore whether 4′-DMA-7,8-DHF and 7,8-DHF have any antidepressant effect like BDNF, a forced swim test was conducted after chronic treatment of the mice for 21 days via oral injection.
(§3) BDNF/TrkB signaling plays an role in mediating antidepressants' therapeutic effects. A forced swim test is broadly used for screening of potential antidepressant drugs and is widely used to measure antidepressant activity. To explore whether imidazole flavanoid and compound i have any antidepressant effect like BDNF, a forced swim test was conducted after chronic treatment of the mice for 21 days via oral administration.

[3] = target: T1, TrkB; experiment: TrkB activation in brain of chronically treated mice (immunoblotting p-TrkB 817, immunohistochemistry p-TrkB Y816); assay type: in vivo; conditions: for TrkB activation in mouse brain after chronic treatment: 5 mg/kg oral 21 days, brain lysates, immunoblotting p-TrkB 817; for TrkB activation in the dentate gyrus: 5 mg/kg oral, after 21 days treatment, immunohistochemistry
Experimental: Paraffin section were deparaffinized in xylene and rehydrated gradient ethanol solution. Samples were boiled in 10 mM sodium citrate buffer for 20 min for antigen retrieval purpose. Brain sections were incubated with anti-TrkB (BD biosciences, San Jose, Calif.) 1:50, and anti-p-TrkB Y816 was used at 1:300 dilution. Secondary antibody were applied using antirabbit-Alexa 594 (red), antimouse-FITC (green). DAPI (blue) was used for nuclear staining.
as §1
Brain tissues were fixed in 4% paraformaldehyde overnight followed by paraffin embedding. Sections of […] were cut. For immunohistochemical staining, brain sections were deparaffinized in xylene and rehydrated in graded alcohols. Endogenous peroxidase activity was blocked by 3% hydrogen peroxide for 5 minutes and all slides were boiled in 10 mM sodium citrate buffer (pH 6.0) for 10 minutes. Phosphorylated Trk B816 and Trk B were detected using specific antibodies. Paraffin section were deparaffinized in xylene and rehydrated gradient ethanol solution. Samples were boiled in 10 mM sodium citrate buffer for 20 min for antigen retrieval purpose. Brain sections were incubated with anti-TrkB (BD biosciences, San Jose, Calif.) 1:50, p-TrkB 1:300 dilution. Secondary antibodies were applied using anti-rabbit-Alexa 594 (red), anti-mouse-FITC (green). DAPI (blue) was used for nuclear staining
Administration of chronic, but not acute, monoamine antidepressant drugs enhances adult neurogenesis in dentate gyrus of rodents and non-human primates, while blocking neurogenesis by irradiation attenuates the behavioral antidepressant-like effects of these drugs in some rodent strains. […] Ablation of TrkB specifically in hippocampal neural progenitor cells prevents chronic antidepressant-induced neurogenesis and renders the mice behaviorally non-responsive to chronic antidepressant treatment. To test whether increasing TrkB activation by these small agonists would elevate the neurogenesis, adult male C57BL/6J mice were orally injected with either vehicle, 7,8-DHF, or 4′-DMA-7,8-DHF (5 mg/kg) for 21 days. At the end of treatment (day 21), animals were injected with BrdU (50 mg/kg, intraperitoneally) to label dividing cells and were sacrificed 2 h later. BrdU immunohistochemistry was used to assess progenitor proliferation (FIG. 4A). […] Therefore, chronic treatment with TrkB agonists promotes neurogenesis in the hippocampus of mice.
as §2, §3

[4] = Forced swim test in C57BL/6J mice; assay type: in vivo, mouse; conditions: 5 mg/kg oral for 21 days, male C57BL/6J mice, immobility in last 4 min of 6 min
Experimental: (§4) Male C57BL/6J mice (8 mice/group) were orally administrated by gavage with 5 mg/kg 4′-DMA-7,8-DHF and 7,8-DHF and vehicle solvent saline for 21 days and subjected to a forced swim test (6 min, immobility recorded in the last 4 min). Data are presented as mean±SEM.
as §4, with “Forced swim test with imidazole flavonoid and compound i. Male” for “Male”, “days,” for “days”
Adult male mice (2-3 months old) were randomly submitted to a forced swim test without a pre-swim. Saline, 4′-DMA-7,8-DHF and 7,8-DHF (5 mg/kg) were orally injected for 21 days. The mice were allowed to adapt to the test room for 2 days. The mice were placed in a clear glass cylinder with a diameter of 16 cm, half-filled with clear water at 24° C.
as §2, §3

| Structure (SMILES) | duration of TrkB agonistic effect in animals compared with 7,8-DHF [1] | time of onset of TrkB activation in mouse brain [1] | time of peak TrkB activation in mouse brain [1] | TrkB phosphorylation in mouse brain at 2 h [1] | TrkB activity in mouse brain at 16 h [1] | TrkA activation in mouse brain after chronic treatment [2] | TrkB activation in mouse brain after chronic treatment [3] | TrkB activation in the dentate gyrus [3] | swimming immobility in forced swim test [4] | TrkB activation in mouse brain, time course, compared with compound i ([1]; various time points) | TrkB activation in mouse brain after chronic treatment ([3]; listed as imidazole flavanoid) | TrkB activation in mouse brain after chronic treatment ([3]; listed as imidazole-derivative) | swimming immobility in forced swim test ([4]; listed as imidazole flavanoid) | swimming immobility in forced swim test ([4]; listed as imidazole-derivative) |
| --- | --- | --- | --- | --- | --- | --- | --- | --- | --- | --- | --- | --- | --- | --- |
| CN(C)c1ccc(-c2cc(=O)c3ccc(O)c(O)c3o2)cc1 [4′-DMA-7,8-DHF, 4′-dimethylamino-7,8-dihydroxyflavone] | sustained longer in animals; also recorded: longer period of TrkB activation in mouse brain | 1 h | 8 h and 4 h | exhibited the strongest TrkB phosphorylation | partially decayed at 16 h | not TrkA activation | evidently provoked TrkB | markedly activated | evidently reduced the immobility |  |  |  |  |  |
| O=c1cc(-c2ccccc2)oc2c(O)c(O)ccc12 [7,8-DHF, 7,8-dihydroxyflavone, reference compound] |  | approximately 2 h |  |  | Elevated TrkB activity was demonstrable even at 16 h | not TrkA activation | evidently provoked TrkB | markedly activated | significantly decreased |  |  |  |  |  |
| CN(C)c1ccc(-c2cc(=O)c3ccc4nc[nH]c4c3o2)cc1 [compound m, 8-(4-(dimethylamino)phenyl)chromeno[7,8-d]imidazol-6(1H)-one] |  |  |  | exhibited the strongest TrkB phosphorylation |  | not TrkA activation |  |  |  | more robust and sustained TrkB activation than compound i | evidently provoked TrkB | stronger activity than compound i | significantly decreased | more robust antidepressant effect than compound i |
